Assay results reported in the supplement of paper PMC10307832.

Legend:
Test in all cases: relative viability (nuclei count vs DMSO), 5 days (fraction); higher = more cells survive
[1] = compound: COC1=CC=C(C=C1)CN2C=CC3=C2C=C(C=C3)C(=O)NO + Cc1nc(Nc2ncc(C(=O)Nc3c(C)cccc3Cl)s2)cc(N2CCN(CCO)CC2)n1 [Dasatinib] (partner 0.075 µM)
In short: (§1)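 Lung cancer cell lines in 1536-well plates got either a single drug or a fixed anchor-drug dose together with five library-drug doses (not always all listed) in √10 steps, by pin tool, on the day after seeding. Nuclei were counted after 5 days, and relative viability is the treated-to-vehicle ratio of nuclei counts. Values are medians of duplicate plates.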

Veliparib + Luminespib = compound: C[C@]1(c2nc3c(C(N)=O)cccc3[nH]2)CCCN1 [Veliparib] + CCNC(=O)c1noc(-c2cc(C(C)C)c(O)cc2O)c1-c1ccc(CN2CCOCC2)cc1 [Luminespib] (partner 0.01 µM)
In short: as §1

Veliparib + Alpelisib = compound: C[C@]1(c2nc3c(C(N)=O)cccc3[nH]2)CCCN1 [Veliparib] + Cc1nc(NC(=O)N2CCC[C@H]2C(N)=O)sc1-c1ccnc(C(C)(C)C(F)(F)F)c1 [Alpelisib] (partner 2 µM)
In short: as §1

Veliparib + Decitabine = compound: C[C@]1(c2nc3c(C(N)=O)cccc3[nH]2)CCCN1 [Veliparib] + Nc1ncn([C@H]2C[C@H](O)[C@@H](CO)O2)c(=O)n1 [Decitabine] (partner 2 µM)
In short: as §1

**Q.** SW 1573 was tested. Which relative viability ([1]; first compound 0.253 µM) did it give?
**A.** 0.545

**Q.** And the relative viability ([1]; first compound 0.8 µM)?
**A.** 0.702

**Q.** And the relative viability ([1]; first compound 2.53 µM)?
**A.** 0.561

**Q.** And the relative viability ([1]; first compound 8 µM)?
**A.** 0.322

**Q.** And the relative viability (Veliparib + Luminespib; first compound 0.02 µM)?
**A.** 0.169

**Q.** And the relative viability (Veliparib + Luminespib; first compound 0.06325 µM)?
**A.** 0.204

**Q.** And the relative viability (Veliparib + Luminespib; first compound 0.2 µM)?
**A.** 0.169

**Q.** And the relative viability (Veliparib + Luminespib; first compound 0.6325 µM)?
**A.** 0.254

**Q.** And the relative viability (Veliparib + Luminespib; first compound 2 µM)?
**A.** 0.214

**Q.** And the relative viability (Veliparib + Alpelisib; first compound 0.02 µM)?
**A.** 0.803

**Q.** And the relative viability (Veliparib + Alpelisib; first compound 0.06325 µM)?
**A.** 0.867

**Q.** And the relative viability (Veliparib + Alpelisib; first compound 0.2 µM)?
**A.** 0.791

**Q.** What about the relative viability (Veliparib + Alpelisib; first compound 0.6325 µM) of the same cell line?
**A.** 0.675

**Q.** And the relative viability (Veliparib + Alpelisib; first compound 2 µM)?
**A.** 0.805

**Q.** What about the relative viability (Veliparib + Decitabine; first compound 0.02 µM) of the same cell line?
**A.** 0.29

**Q.** And the relative viability (Veliparib + Decitabine; first compound 0.06325 µM)?
**A.** 0.289

**Q.** And the relative viability (Veliparib + Decitabine; first compound 0.2 µM)?
**A.** 0.287

**Q.** What about the relative viability (Veliparib + Decitabine; first compound 0.6325 µM) of the same cell line?
**A.** 0.361

**Q.** What about the relative viability (Veliparib + Decitabine; first compound 2 µM) of the same cell line?
**A.** 0.298
